Measurements published in patent publication US20150140089A1 (MetronomX, priority 2012, published 2015).
Several values for one entry are separate records, joined by “and”; a condition that tells them apart may be missing. Identical values can stand only once. Like-named read-outs stand apart in the source and are kept apart here.

Columns and labels:
[1] = In vitro release (dissolution), USP apparatus II, 5% SDS in 0.1N HCl; format: physicochemical; conditions: 0.1N HCl with 5% SDS; in 24 hr
Method: (§1) At specified time intervals (0.5, 1, 2, 4, 8, 10, and 24 h), 2 ml of sample was collected from each basket and replaced with the same volume of buffer.

[2] = In vitro release (dissolution) using 2% w/v SDS in deionized water; format: physicochemical
Method: as §1
Dissolution of each formulation was performed in duplicate.

[3] = blood level of active compound; cited from earlier work
[4] = 2% w/v SDS in water

Nifurtimox degradation in dissolution samples [1]: about 25% | instability of Nifurtimox during dissolution (in words) [2]: no significant instability | Estimated Amount of Nifurtimox ([4]; 25 °C, 0 hr): 344.22 µg/mL | Estimated Amount of Nifurtimox ([4]; 25 °C, 4 hr): 339.96 µg/mL | Estimated Amount of Nifurtimox ([4]; 25 °C, 8 hr): 345.38 µg/mL | Estimated Amount of Nifurtimox ([4]; 25 °C, 12 hr): 346.21 µg/mL | Estimated Amount of Nifurtimox ([4]; 25 °C, 16 hr): 346.94 µg/mL | Estimated Amount of Nifurtimox ([4]; 25 °C, 20 hr): 344.92 µg/mL | Estimated Amount of Nifurtimox ([4]; 25 °C, 24 hr): 341.80 µg/mL | Estimated Amount of Nifurtimox ([4]; 37 °C, 1 hr): 338.78 µg/mL | Estimated Amount of Nifurtimox ([4]; 37 °C, 2 hr): 339.74 µg/mL | Estimated Amount of Nifurtimox ([4]; 37 °C, 3 hr): 338.78 µg/mL | Estimated Amount of Nifurtimox ([4]; 37 °C, 24 hr): 343.76 µg/mL and 339.56 µg/mL
SMILES: CC1CS(=O)(=O)CCN1/N=C/c1ccc([N+](=O)[O-])o1 (stereo not drawn) [Nifurtimox, 3-methyl-4-(5′-nitrofurfurylidene-amino)-tetrahydro-4H-1,4-thiazine-1,1-dioxide]
half-life [3]: 2.95 ± 1.19 h | time to peak [3]: 1 to 2 h
